Test results taken from patent US8269017B2, “Compounds for the treatment of proliferative disorders” (Synta Pharmaceuticals Corporation, priority 2005, dated 2012).
Counter-ions that a name gives are not always drawn. Like-named read-outs stand apart in the source and are kept apart here.

Assays:
[1] = system: MES-SA/DX5 (uterine sarcoma, MDR-1); test: cells; assay type: cell-based; details: MES/DX5 (MDR-1), MTS assay
Experimental: (§1) The in vitro cytotoxicity of the compounds of the invention was determined in the following human cell lines: HL-60 (T-cell leukemia), MDA-435 and MCF-7 (human breast carcinoma), NCI-H460 and H29 (colon carcinoma), DU145 (prostate carcinoma), and MES-SA and MES-SA/DX5 (uterine sarcoma). MES-SA is a model of uterine sarcoma, and the cell are sensitive to a number of chemotherapeutic agents including doxorubicin, dactinomycin, mitomycin C, taxol and bleomycin, but resistant to vinblastine and cisplatin. MES-SA/Dx5 was established in the presence of increasing concentrations of doxorubicin. […] All cells were purchased from ATCC.
(§2) The cell lines were maintained in RPMI1640 (GIBCO) supplemented with 10% FCS, 100 units/mL penicillin, 100 ug/ml streptomycin, and 2 mM L-glutamine. Cells were split every third day and diluted to a concentration of 2×10^5 cells/mL one day before the experiment was performed. All experiments were performed on exponentially growing cell cultures. Cell densities were 2.5×10^4 cells/mL in all experiments.
(§3) Compounds of the invention were prepared by dissolving the compound at a concentration of 10 mM in 100% DMSO. Final concentrations 10, 1, 0.1, 0.01 and 0.001 μM were obtained by diluting the stock solution directly into the tissue culture medium.

MES-SA (uterine sarcoma) = test: In vitro cytotoxicity, MTS assay, MES-SA; assay type: cell-based, human; details: MES-SA (Uterine Carcinoma)
Experimental: as §1, §2, §3

HL-60 (T-cell leukemia) = test: In vitro cytotoxicity, MTS assay, HL-60; assay type: cell-based, human
Experimental: as §1, §2, §3

SB cells = test: Induction of apoptosis in SB cells (Annexin V/PI, FACS); assay type: cell-based; details: 24 h; for % Apoptotic Cells Gated: 1 μM; for cytotoxicity at 1 µM: read-out: % Dead Cells Gated; for viability at 1 µM: read-out: % Live Cells Gated
Experimental: SB cells (2×10^5 cells/mL) were cultured in 12-well plates (2 mL/well) and were left untreated (negative control), treated with Taxol (positive control), or treated with a compound of the invention for 24 h at 37° C. After treatment, the cells were washed one time with 1×PBS and stained with FITC labeled anti-Annexin V and PI (10 μg/ml) for 15 min at room temperature. The cells were analyzed by FACSCalibur (Becton Dickinson).

MDA-435 = test: Cytotoxicity in MDA-435 tumor cells (Cell Counting Kit 8); assay type: cell-based; details: Homo sapiens, MDA435, MDA-435 cells, 70 h
Experimental: Tumor cell line, MDA-435, was seeded in 96-well plates at 1×10^4 cells/well in DMEM medium and treated with compounds at different concentrations. Taxol was used as a positive control. The cells were incubated at 37° C. for 70 h. Viability of the cells was measured with Cell Counting Kit 8 (Dojindo, Cat #CK04). IC50 of the compounds was determined by Five-Parameter Logistic equation.

MDA-435 cells = test: Cell cycle analysis in MDA-435 cells; assay type: cell-based, human; details: 20 h, Taxol 30 nM, Comp. 1 100 nM, Comp. 2 500 nM, Comp. 3 10 nM, Comp. 6 800 mM (so in the source), Comp. 46 50 nM
Experimental: MDA-435 cells were cultured in 6-well plates at 1×10^6 cells/well and were untreated (negative control), treated with Taxol (positive control), or treated with a compound of the invention at 37° C. for 20 h. The cells were detached with 1× trypsin and washed one time with PBS. Cycle TEST PLUS kit (BD PharMingen, Cat #340242) was used to stain the cells. Cell cycle was analyzed with FACScomp program (BS PharMingen).

[2] = system: microtubules of CV-1 cells; test: Microtubule disruption in CV-1 cells resistant to colchicine and vincristine; assay type: cell-based, Africa green monkey; details: 500 nM
Description: The effects of compounds of the invention on microtubules were studied in CV-1 cells. The microtubules of CV-1 cells are known to be resistant to the depolymerizing effects of colchicine and vincristine. […] Cells were then fixed and stained to examine microtubule structure.

[3] = Homo sapiens, HL-60, 72 h, HL60 (Leukemia)
[4] = Homo sapiens, 72 hours, read-out: IC50
[5] = Homo sapiens, HL-60, HL60 (Leukemia), 72 hours, read-out: IC50

Row | SMILES | IC50 ([1]; Homo sapiens, MDR1, 72 h) [nM] | % Apoptotic Cells Gated (SB cells) [%] | cytotoxicity at 1 µM (SB cells) [%] | viability at 1 µM (SB cells) [%] | IC50 (MDA-435) [nM] | further results
1 | COc1ccc(CC(N)C(=O)Nc2cc(-c3cnoc3-c3cc(OC)c(OC)c(OC)c3)ccc2OC)cc1 (stereo not drawn) [Compound 176, 2-amino-N-(2-methoxy-5-(5-(3,4,5-trimethoxyphenyl)isoxazol-4-yl)phenyl)-3-(4-methoxyphenyl)propanamide] | 0.1 |  |  |  |  | IC50 (MES-SA (uterine sarcoma); Homo sapiens, MES-SA, 72 h): 0.1 nM; IC50 (HL-60 (T-cell leukemia); [3]): 64 nM
2 | CCc1cc(-c2oncc2-c2ccc3ccccc3c2)c(O)cc1OC [Compound 2, 4-(Naphthalen-2-yl)-5-(2-hydroxy-4-methoxy-5-ethyl-phenyl)-isoxazole] |  | 22.73 | 22.7 | 45.7 | 79 | Apoptotic Population (%) (MDA-435 cells): 11.17%; G0/G1 Phase (%) (MDA-435 cells): 21.25%; G2/M Phase (%) (MDA-435 cells): 30.53%; S Phase (%) (MDA-435 cells): 37.67%
3 | COc1cc(-c2cnoc2-c2ccc(Br)cc2)cc(OC)c1OC [Compound 168, 4-(3,4,5-Trimethoxy-phenyl)-5-(4-bromo-phenyl)-isoxazole] |  | 15.49 | 14.4 | 60.4 | > 1000 | 
4 | COc1ccc(-c2cnoc2-c2cc(OC)c(OC)c(OC)c2)cc1OP(=O)(O)O [Compound 177, 2-methoxy-5-[5-(3,4,5-trimethoxy-phenyl)-isoxazol-4-yl)-phenyl dihydrogen phosphate] | 4 |  |  |  |  | IC50 (MES-SA (uterine sarcoma); Homo sapiens, MES-SA, 72 h): 8 nM; IC50 (HL-60 (T-cell leukemia); HL60 (Leukemia), 72 hours): 52 nM
5 | CCc1ccc(-c2cnoc2-c2cc(OC)c(OC)c(OC)c2)cc1 [Compound 47, 4-(4-Ethyl-phenyl)-5-(3,4,5-trimethoxy-phenyl)-isoxazole] |  | 13.83 | 14.8 | 61.9 | 47 | 
6 | CCc1cc(-c2oncc2-c2ccc(OC)cc2)c(O)cc1OC [Compound 44, 4-(4-Methoxy-phenyl)-5-(2-hydroxy-4-methoxy-5-ethyl-phenyl)-isoxazole] |  | 16.05 | 12.3 | 64.8 | 200 | 
7 | COc1ccc(-c2oncc2-c2ccc3c(c2)OCCO3)cc1OC [Compound 161, 4-(2,3-Dihydro-benzo[1,4]dioxin-6-yl)-5-(3,4-dimethoxy-phenyl)isoxazole] |  | 14.61 | 10.5 | 66.8 | 591 | 
8 | COc1cc(-c2oncc2-c2ccc(C(C)C)cc2)cc(OC)c1OC [Compound 45, 4-(4-Isopropyl-phenyl)-5-(3,4,5-trimethoxy-phenyl)-isoxazole] |  | 17.74 | 15.4 | 62 | 219 | 
9 | COc1ccc(-c2cnoc2-c2cc(OC)c(OC)c(OC)c2)cc1NC(=O)CCN [Compound 243, 3-amino-N-(2-methoxy-5-(5-(3,4,5-trimethoxyphenyl)isoxazol-4-yl)phenyl)propanamide Hydrochloride] | 38 |  |  |  |  | IC50 (MES-SA (uterine sarcoma); Homo sapiens, MES-SA, 72 h): 50 nM; IC50 (HL-60 (T-cell leukemia); [3]): 63 nM
10 | COc1ccc(-c2cnoc2-c2cc(OC)c(OC)c(OC)c2)cc1NC(=O)C(C)N (stereo not drawn) [Compound 204, 2-amino-N-(2-methoxy-5-(5-(3,4,5-trimethoxyphenyl)isoxazol-4-yl)phenyl)propanamide Hydrochloride] |  |  |  |  |  | IC50 ([1]; 72 hours, Hydrochloride): 120 nM; IC50 (MES-SA (uterine sarcoma); 72 hours, Hydrochloride): 106 nM; IC50 (HL-60 (T-cell leukemia); HL60 (Leukemia), 72 hours, Hydrochloride): 500 nM
11 | COc1ccc(-c2cnoc2-c2cc(OC)c(OC)c(OC)c2)cc1NC(=O)C(N)CO (stereo not drawn) [Compound 170, 2-amino-3-hydroxy-N-(2-methoxy-5-[5-(3,4,5-trimethoxy-phenyl)-isoxazol-4-yl)-phenyl)propanamide hydrochloride] | 3 |  |  |  |  | IC50 (MES-SA (uterine sarcoma); [4]): 9 nM; IC50 (HL-60 (T-cell leukemia); [5]): 2 nM
12 | COc1ccc(-c2cnoc2-c2cc(OC)c(OC)c(OC)c2)cc1NC(=O)C(N)CC(C)C (stereo not drawn) [Compound 175, 2-amino-N-(2-methoxy-5-(5-(3,4,5-trimethoxyphenyl)isoxazol-4-yl)phenyl)-4-methylpentanamide Hydrochloride] | 0.1 |  |  |  |  | IC50 (MES-SA (uterine sarcoma); [4]): 0.1 nM; IC50 (HL-60 (T-cell leukemia); [5]): 5 nM
13 | CCc1cc(-c2oncc2-c2ccc(C)c(C)c2)c(O)cc1OC [Compound 162, 4-(3,4-Dimethy-phenyl)-5-(2-hydroxy-4-methoxy-5-ethyl-phenyl)-isoxazole] |  | 17.74 | 11.5 | 64.6 | 842 | 
14 | COc1cc2c(c(OC)c1OC)-c1ccc(OC)c(=O)cc1[C@@H](NC(C)=O)CC2 [colchicine] |  |  |  |  |  | microtubule structure ([2]; 24 hr): disorganized but clear microtubule structures were found; microtubule structure ([2]; 48 hr): microtubule structures were still found
15 | COc1ccc(-c2cnoc2-c2cc(OC)c(OC)c(OC)c2)cc1NC(=O)C(C)N (stereo not drawn) [Compound 171, 2-amino-N-(2-methoxy-5-[5-(3,4,5-trimethoxy-phenyl)-isoxazol-4-yl)-phenyl)propanamide] |  |  |  |  |  | IC50 ([1]; 72 hours): 4 nM; IC50 (MES-SA (uterine sarcoma); 72 hours): 2 nM; IC50 (HL-60 (T-cell leukemia); HL60 (Leukemia), 72 hours): 5 nM
16 | COC(=O)CNCC(=O)Nc1cc(-c2cnoc2-c2cc(OC)c(OC)c(OC)c2)ccc1OC [Compound 241, methyl 2-(2-(2-methoxy-5-(5-(3,4,5-trimethoxyphenyl)isoxazol-4-yl)phenylamino)-2-oxoethylamino)acetate] | 63 |  |  |  |  | IC50 (MES-SA (uterine sarcoma); [4]): 136 nM; IC50 (HL-60 (T-cell leukemia); [5]): 600 nM
17 | CCC(N)C(=O)Nc1cc(-c2cnoc2-c2cc(OC)c(OC)c(OC)c2)ccc1OC (stereo not drawn) [Compound 173, 2-amino-N-(2-methoxy-5-(5-(3,4,5-trimethoxyphenyl)isoxazol-4-yl)phenyl)butanamide Hydrochloride] | 0.1 |  |  |  |  | IC50 (MES-SA (uterine sarcoma); [4]): 0.1 nM; IC50 (HL-60 (T-cell leukemia); [5]): 2 nM
18 | CC[C@]1(O)C[C@H]2CN(CCc3c([nH]c4ccccc34)[C@@](C(=O)OC)(c3cc4c(cc3OC)N(C=O)[C@H]3[C@@](O)(C(=O)OC)[C@H](OC(C)=O)[C@]5(CC)C=CCN6CC[C@]43[C@@H]65)C2)C1 [vincristine, Vincristine] |  |  |  |  |  | microtubule structure ([2]; 24 hr): disorganized but clear microtubule structures were found; microtubule structure ([2]; 48 hr): microtubule structures were still found
19 | COc1ccc(-c2cnoc2-c2cc(OC)c(OC)c(OC)c2)cc1NC(=O)C(N)CCSC (stereo not drawn) [Compound 172, 2-amino-N-(2-methoxy-5-(5-(3,4,5-trimethoxyphenyl)isoxazol-4-yl)phenyl)-4-(methylthio)butanamide Hydrochloride] | 0.1 |  |  |  |  | IC50 (MES-SA (uterine sarcoma); [4]): 0.1 nM; IC50 (HL-60 (T-cell leukemia); [5]): 5 nM
